Where two headings read alike, the source gives them in different places. Square brackets hold non-standard residues; d marks the D form. Ends that are not written are not given here. Peptide text beside a SMILES is read from it. Nspe = C[C@H](NCC(=O)O)c1ccccc1; NhArg = N=C(N)NCCCCNCC(=O)O; Nphe = O=C(O)CNCc1ccccc1; Nlys = NCCCCNCC(=O)O

Data set [1] in a line: Skin cell toxicity assay with HaCaT (alamarBlue). The data set is classed as cell-based, human. The note with it: human, HaCaT cells (keratinocytes), ED50 HaCaT. The method, then: (§1) The activity of our peptoid library was assessed against both bacterial and mammalian cells to gain a broader understanding of the factors that lead to effective and selective antimicrobial peptoids. We screened for broad-spectrum antibacterial activity against Gram-negative (Escherichia coli and Pseudomonas aeruginosa) and Gram-positive (Staphylococcus aureus and S. epidermidis) bacteria. The toxicity of the library was also assessed against two mammalian cell lines; HaCaT spontaneously transformed aneuploid keratinocytes were employed to model toxicity against human skin cells and HepG2, a cell line derived from a human liver carcinoma, were used as a study on polarised human hepatocytes. Detailed methods for these assays can be found in the ESI. ^‡ […]
(§2) Please note – ED50, the median effective dose, was defined as the dose that kills 50% of cells.
(§3) Cytotoxicity analyses were performed in 96-well plates (Costar, Fisher Scientific) using alamarBlue® (Invitrogen) for cell viability detection using a modified protocol as described previously. HepG2 or HaCaT cells were subcultured at 37 °C, 5% CO2 in DMEM high glucose supplemented with heat-inactivated foetal bovine sera (FBS, 10%; Biosera Ltd) and penicillin/streptomycin (P/S, 1%). Cells were counted using a Neubauer Improved Haemocytometer. HepG2 cells were seeded 1 day prior to treatment in 96 well plates at a concentration of 2 × 10^5 cells per mL in 100 μL of medium (2 × 10^4 cells per well). Then cells were pre-incubated with the compounds in triplicate in a dilution series in triplicate from 2–100 μM (5 mM stock solutions in DMSO diluted from 100 μM to 3 μM; untreated cells with DMSO as a negative control) in 50 μl of the media for 1 hour. Afterwards, 40 μL were removed from each well before the addition of 90 μL of the media, followed by incubation for 24 hours at 37 °C, 5% CO2. Then, 10 μL of alamarBlue® (Invitrogen) was added to each well before a 2 hour incubation prior to assessing cell viability using a fluorescent plate reader (Biotek; Ex 560 nm/Em 600 nm). All data were measured in triplicate on a minimum of two occasions to ensure a robust data set was collected. The ED50 values were calculated from the dose response results achieved from the serial dilutions. […]
(§4) Cells were counted using a Neubauer Improved
(§5) Haemocytometer. […]
(§6) µM to 3 µM; untreated cells with DMSO as a negative control) in 50 µl of the media for 1 hour.
(§7) Afterwards, 40 µL were removed from each well before the addition of 90 µL of the media, followed by incubation for 24 hours at 37 °C, 5% CO2. Then, 10 µL of alamarBlue® (Invitrogen) was added to each well before a 2 hour incubation prior to assessing cell viability using a fluorescent plate reader (Biotek; Ex 560 nm / Em 600 nm). All data was measured in triplicate on a minimum of two occasions to ensure a robust data set was collected. The ED50 values were calculated from the dose response results achieved from the serial dilutions.
(§8) Skin Cell Toxicity assay with HaCaT […]
(§9) alamarBlue® (Invitrogen) for cell viability detection. HaCaT cells were subcultured at 37 °C, 5% CO2 in DMEM high glucose supplemented with heat-inactivated foetal bovine sera (FBS, 10%; Biosera Ltd) and penicillin/streptomycin (P/S, 1%). Cells were counted using a Neubauer Improved Haemocytometer. HaCaT cells were seeded in the plates 24 hours prior to treatment in 96 well plates at a concentration of 2x10^5 cells/mL in 100 µL of medium (2x10^4 cells/well).
(§10) Empty wells were filled with 100 µL PBS. After 24 hours, cells were incubated with the compounds in a dilution series in triplicate from 2 – 100 µM (5 mM stock solutions in DMSO diluted from 100 µM to 3 µM; Amphotericin B was used as a positive control and untreated cells with DMSO as a negative control) in 50 µL of the media for 1 hour. Afterwards, 40 µl was removed from each well, 90 µL of medium was added to each well and the cells incubated for 24 hours at 37 °C, 5% CO2. 10 µL of alamarBlue® (Invitrogen) was added to each well before […]
For orientation: The colour change of resazurin is a common sign of viable cells or microbes.

The test system of data set [2] is HaCaT cells. Briefly: Skin cell toxicity assay with HaCaT (alamarBlue). The format is cell-based, human. The conditions noted are these: human, HaCaT cells (keratinocytes), 24 h. Here is the method:
as §1, §2, §3, §4, §5, §6, §7, §8, §9, §10

In data set [3] the test system is Escherichia coli K-12 wild-type strain (W3110/ATCC27325). The data set is classed as cell-based. The conditions noted are these: lowest concentration completely inhibiting growth, 37 °C, 16 h; range 2–100 μM. Here is the method:
(§11) Escherichia coli K-12 wild-type strain (W3110/ATCC27325, F^–, λ^–, rpoS(Am), rph-1, Inv(rrnD-rrnE)), Pseudomonas aeruginosa PA01 (ATCC 15692) Staphylococcus aureus (3R7089 strain Oxford/ATCC9144) and Staphylococcus epidermidis (laboratory strain from clinical isolate) were selected for bacteriological studies as representative Gram-negative (E. coli and P. aeruginosa) and Gram-positive (S. aureus and S. epidermidis) species. Bacterial cultures were prepared by streaking bacterial strains onto LB agar plates with an inoculation loop and incubated overnight at 37 °C. A single colony was selected and placed in 5 mL of Iso-sensitest broth (Oxoid, ThermoScientific) and incubated with shaking for 16–18 h at 37 °C to provide liquid cultures for testing.
(§12) MIC values were obtained according to the protocol described by J. M. Andrews et al.[58] and were conducted in 96-well plates (Sarstedt). Bacteria were grown from overnight cultures in Iso-sensitest broth to an A650nm of 0.07 equivalent to a 0.5 MacFarland standard (240 μM BaCl2 in 0.18 M H2SO4). This culture was diluted ten-fold with Iso-sensitest broth before use. Peptoids were initially dissolved in DMSO (5 mM) and diluted further in Iso-sensitest broth to achieve a concentration range of 4–200 μM using 2-fold serial dilutions. 50 μl of inoculum and 50 μl of peptoid solution were added to each test well (final concentration range of 2–100 μM). Experiments were performed in triplicate. A positive control for bacterial growth contained only the inoculum and Iso-sensitest broth. Other controls contained the inoculum and serial dilutions of ampicillin (from 250 μg mL^–1 to 2 μg mL^–1), serial dilutions of DMSO and the inoculum to confirm no inhibitory effect on bacterial growth, and Iso-sensitest broth alone as a sterile control. […] Quantitative data was attained from absorbance values using a Biotek Synergy H4 plate reader.
(§13) Antibacterial MIC determination
(§14) Escherichia coli K-12 wild-type strain (W3110 / ATCC27325, F-, λ-, rpoS(Am), rph-1, Inv(rrnD-rrnE)), Pseudomonas aeruginosa PA01 (ATCC 15692) Staphylococcus aureus (3R7089 strain Oxford / ATCC9144) and Staphylococcus epidermidis (laboratory strain from clinical isolate) were selected for bacteriological studies as representative Gram-negative (E. coli and P. aeruginosa) and Gram-positive (S. aureus and S. epidermidis) species. Bacterial cultures were prepared by streaking bacterial strains onto LB agar plates with an inoculation loop and incubated overnight at 37 °C.
(§15) A single colony was selected and placed in 5 mL of Iso-sensitest broth (Oxoid, ThermoScientific) and incubated with shaking for 16-18 h at 37 °C to provide liquid […]
(§16) MIC values were obtained according to the protocol described by J. M. Andrews et al.1 and were conducted in 96-well plates (Sarstedt). Bacteria were grown from overnight cultures in Iso-sensitest broth to an A650nm of 0.07 equivalent to a 0.5 MacFarland standard (240 μM BaCl2 in 0.18 M H2SO4). This culture was diluted ten-fold with Iso-sensitest broth before use. Peptoids were initially dissolved in DMSO (5 mM) and diluted further in Iso-sensitest broth to achieve a concentration range of 4 – 200 µM using 2-fold serial dilutions. 50 μl of inoculum and 50 μl of peptoid solution were added to each test well (final concentration range of 2 – 100 µM). Experiments were performed in triplicate. A positive control for bacterial growth contained only the inoculum and Iso-sensitest broth. Other controls contained the inoculum and serial dilutions of ampicillin (from 250 µg/mL to 2 µg/mL), serial dilutions of DMSO and the inoculum to confirm no inhibitory effect on bacterial growth, and Iso-sensitest broth alone as a sterile control. […]
(§17) growth after incubation at 37 °C for 16 h with shaking. Quantitative data was attained from absorbance values using a Biotek Synergy H4 plate reader.

In data set [4] the test system is Pseudomonas aeruginosa PA01 (ATCC 15692). The data set is classed as cell-based. The conditions noted are these: lowest concentration completely inhibiting growth, 37 °C, 16 h; range 2–100 μM. The method, then:
as §11, §12, §13, §14, §15, §16, §17

Data set [5] has as its system Staphylococcus epidermidis (laboratory strain from clinical isolate). The format is cell-based. The conditions noted are these: lowest concentration completely inhibiting growth, 37 °C, 16 h; range 2–100 μM. Here is the method:
as §11, §12, §13, §14, §15, §16, §17

The subject of data set [6] is Staphylococcus aureus (3R7089 strain Oxford/ATCC9144). The format is cell-based. The conditions noted are these: lowest concentration completely inhibiting growth, 37 °C, 16 h; range 2–100 μM. The method, then: as §11, §12, §13, §14, §15, §16, §17
Data set [7] relates to E. coli. On the set-up: method as in PMID 10681325, PMID 3299384. The conditions noted are these: cited from earlier work.
For data set [8], the system named is S. epidermidis. On the set-up: method as in PMID 10681325, PMID 3299384. The note with it: cited from earlier work.
Data set [9] relates to S. aureus. Further details: method as in PMID 10681325, PMID 3299384. The note with it: cited from earlier work.
The test system of data set [10] is E. coli. On the set-up: method as in PMID 10681325. The conditions noted are these: cited from earlier work.

With `N=C(N)NCCCCNCC(=O)N(CC(=O)N(CC(=O)N(CCCCNC(=N)N)CC(=O)N(CC(=O)N(CC(=O)N(CCCCNC(=N)N)CC(=O)N(CC(=O)N(CC(=O)N(CCCCNC(=N)N)CC(=O)N(CC(=O)N(CC(N)=O)Cc1ccccc1)Cc1ccccc1)Cc1ccccc1)Cc1ccccc1)Cc1ccccc1)Cc1ccccc1)Cc1ccccc1)Cc1ccccc1` [Peptoid 33, (NhArgNpheNphe)4] (H-[NhArg][Nphe][Nphe][NhArg][Nphe][Nphe][NhArg][Nphe][Nphe][NhArg][Nphe][Nphe]-NH2), the CC50 – broadly, the concentration at which the toxic effect on the cells reaches its halfway point – at 24 h in data set [1] is 100 µM. Further, in [2], the “ED50 HaCaT” value is >100 µM. In addition, the “MIC E. coli” value in data set [3] stood at 6 µM. Besides, the “MIC P. aeruginosa” value in [4] turned out to be 25 µM. In addition, the “MIC S. epidermidis” value in data set [5] turned out to be 2 µM.
On to `C[C@@H](c1ccccc1)N(CC(N)=O)C(=O)CN(C(=O)CN(CCCCNC(=N)N)C(=O)CN(C(=O)CN(C(=O)CN(CCCCNC(=N)N)C(=O)CN(C(=O)CN(C(=O)CN(CCCCN)C(=O)CN(C(=O)CN(C(=O)CNCCCCN)[C@@H](C)c1ccccc1)[C@@H](C)c1ccccc1)[C@@H](C)c1ccccc1)[C@@H](C)c1ccccc1)[C@@H](C)c1ccccc1)[C@@H](C)c1ccccc1)[C@@H](C)c1ccccc1` [Peptoid 41, (NLysNspeNspe)2(NhArgNspeNspe)2] (H-[Nlys][Nspe][Nspe][Nlys][Nspe][Nspe][NhArg][Nspe][Nspe][NhArg][Nspe][Nspe]-NH2), for which it took 100 µM to reach half-maximal cytotoxicity in data set [1] (CC50 at 24 h). Besides, the “ED50 HaCaT” value in [2] was >100 µM. Besides, in data set [3], the “MIC E. coli” value is 17 µM. In addition, the “MIC P. aeruginosa” value in data set [4] worked out at 34 µM. Besides, in data set [6], the “MIC S. aureus” value came out at 17 µM.
For `C[C@@H](c1ccccc1)N(CC(N)=O)C(=O)CN(C(=O)CN(CCCCN)C(=O)CN(C(=O)CN(C(=O)CN(CCCCNC(=N)N)C(=O)CN(C(=O)CN(C(=O)CN(CCCCN)C(=O)CN(C(=O)CN(C(=O)CNCCCCNC(=N)N)[C@@H](C)c1ccccc1)[C@@H](C)c1ccccc1)[C@@H](C)c1ccccc1)[C@@H](C)c1ccccc1)[C@@H](C)c1ccccc1)[C@@H](C)c1ccccc1)[C@@H](C)c1ccccc1` [Peptoid 44, [(NhArgNspeNspe)(NLysNspeNspe)]2] (H-[NhArg][Nspe][Nspe][Nlys][Nspe][Nspe][NhArg][Nspe][Nspe][Nlys][Nspe][Nspe]-NH2), the CC50 at 24 h in data set [1] was determined as 33 µM. In addition, the “MIC E. coli” value in data set [3] came to 17 µM. Besides, in data set [4], the “MIC P. aeruginosa” value was determined as 67 µM. Moreover, the “MIC S. aureus” value in data set [6] amounted to 17 µM.
Consider Magainin 2, for which the “MIC E. coli” value is 5 μg mL^–1 in [7] and 2 µM in [7] (value in brackets, in μM). For the same molecule, the “MIC S. epidermidis” value in [8] was 10 μg mL^–1; in [8] (value in brackets, in μM) it was 4 µM. Further, the “MIC S. aureus” value is 50 μg mL^–1 in data set [9] and 20 µM in [9] (value in brackets, in μM).
Take “cecropin A (KWKLFKKIEKVGQNIRDGIIKAGPAVAVVGQATQIAK; ends and bridges not checked; UniProt P01507 27-63, looked up) [natural antimicrobial peptide (AMP) described in the literature]”: the “concentration shown to kill 90% of E. coli” value in [10] is 2 µM.

These data come from article PMC6072100, “Exploring the links between peptoid antibacterial activity and toxicity” (MedChemComm, 2017).
